Results published in US5453518A, “Flavone derivatives” (Recordati S.A., Chemical and Pharmaceutical Company, priority 1992, dated 1995).
Where a name gives a salt, the structure may show the parent alone. Read-outs that look alike come from different tables or passages of the source.

Tests used:
[1] = system: rat bladder (K^+ -induced contractions); test: Inhibition of K^+ -induced rat bladder contractions; parameters: species or system rat (male Sprague Dawley); conditions: for IC50: 0.5 h, KCl 80 mM, 30 min after drug, isolated rat bladder; for activity of N-oxide compounds: in words, based on the Table
Procedure: Female Albino Swiss mice [Crl: CD-1 (ICR) BR] with a body weight of 20-30 g and male Sprague Dawley rats [Crl: CD° BR] with a body weight of 200-300 g, from the Charles River Farm, Italy, were used for the trials. The animals were housed with free access to food and water and kept on a forced light-darkness cycle at 22°-24° C. until the day of the trials. Male rats were killed by a blow on their heads and their lower abdomens were opened along the midlines. Their urinary bladders were removed by a transverse dissection above the trigone and cut into two fragments (20-30 mm long, 1-2 mm wide). Each fragment was suspended in an isolated organ bath containing 10 ml of a normal Tyrode solution (composition in mM: NaCl 137, KCl 2.68, MgCl2 1.11, CaCl2 1.8, NaH2 PO4 0.41, NaHCO3 11.9, glucose 5.55) and connected, under a steady 1 g load, to an isometric transducer (DY-1, Basile). The solution was gassed with a mixture of 95% O2 and 5% CO2 and heated at 37° C. After a 60 minute equilibration the tension responses to a single KCl dose (Bath concentration=80 mM) inducing phasic and tonic contractions were measured under isometric conditions at 30 minute intervals. After recording one or more reproducible responses, a solution of the test drug was added to the bath (final concentration from 10^-4 to 10^-9 M) and 30 minutes later a new contraction was induced. The experimental groups were made up of at least 2 preparations from different animals for each drug concentration tested. The IC50 values of the inhibition of the agonist-induced contractions were evaluated by linear regression analysis.

[2] = Acute toxicity in mice (LD50); type: in vivo; conditions: mouse, in vivo, mice, death rate 7 days after administration
Procedure: (§1) Female Albino Swiss mice [Crl: CD-1 (ICR) BR] with a body weight of 20-30 g and male Sprague Dawley rats [Crl: CD° BR] with a body weight of 200-300 g, from the Charles River Farm, Italy, were used for the trials. The animals were housed with free access to food and water and kept on a forced light-darkness cycle at 22°-24° C. until the day of the trials.
(§2) The acute toxicity was evaluated in female Albino Swiss mice after intraperitoneal or oral administrations. Four logarithmic scaled doses of the compounds were dissolved or suspended in 0.5% aqueous Methocel and administered at a volume of 10 ml/kg to groups of 4 mice/dose. The death rate was recorded 7 days after the administration.
(§3) The LD50 values and the relevant confidence limits were calculated according to the method of Weil (Biometrics, 8, 249, 1952).

[3] = Stability at 37° C. and physiological pH (phosphate buffer, pH=7.4); type: physicochemical; conditions: pH 7.4 phosphate buffer, read-out: Stability at pH 7.4, % Unchanged after 3 h
Source text: The stability of the other compounds of the invention was not investigated as they are known to be less subject to degradation than the esters.

[4] = system: Female Albino Swiss mice; test: Acute toxicity in mice (LD50); type: in vivo; conditions: in words; LD50/IC50 compared with Flavoxate
Procedure: as §1, §2, §3

[5] = phasic contraction, read-out: IC50, inhibition of K^+ -induced rat bladder contractions, Phasic
[6] = tonic contraction, read-out: IC50, inhibition of K^+ -induced rat bladder contractions, Tonic
[7] = ip, i.p., read-out: Mice LD50 i.p.
[8] = po, p.o., read-out: Mice LD50 p.o.

What does the source list for `CCN(CCCOC(=O)c1cccc2c(=O)c(C)c(-c3ccccc3)oc12)C(C)Cc1ccc(OC)cc1.Cl` (stereo not shown) [Example 6, 8-{3-[N-Ethyl-3-(4-methoxyphenyl)-2-propylamino]propoxycarbonyl}-3-methyl-4-oxo-2-phenyl-4H-1-benzopyran hydrochloride]?
IC50 [1, 5]: 1700 nM; IC50 [1, 6]: 4200 nM; LD50 at 168 h [2, 7]: > 1000 mg/kg; LD50 at 168 h [2, 8]: > 3000 mg/kg; remaining at 3 h [3]: 99%

What does the source list for `COc1ccc(CCN(C)CCCOC(=O)c2cccc3c(=O)c(C)c(-c4ccccc4)oc23)cc1OC.Cl` [Example 2, 8-{3-[2-(3,4-Dimethoxyphenyl)-N-methylethylamino]propoxycarbonyl}-3-methyl-4-oxo-2-phenyl-4H-1-benzopyran hydrochloride]?
IC50 [1, 5]: 1000 nM; IC50 [1, 6]: 500 nM; LD50 at 168 h [2, 7]: 773 mg/kg; LD50 at 168 h [2, 8]: 2260 mg/kg

Which results are given for `COc1ccc(CC2c3cc(OC)c(OC)cc3CCN2CCCOC(=O)c2cccc3c(=O)c(C)c(-c4ccccc4)oc23)cc1OC` (stereo not shown) [Example 7, 8-{3-[1-(3,4-Dimethoxybenzyl)-6,7-dimethoxy-2H-1,2,3,4-tetrahydro-2-isoquinolinyl]propoxycarbonyl}-3-methyl-4-oxo-2-phenyl-4H-1-benzopyran hydrochloride]?
IC50 [1, 5]: 1400 nM; IC50 [1, 6]: 900 nM; LD50 at 168 h [2, 7]: > 1000 mg/kg; LD50 at 168 h [2, 8]: > 3000 mg/kg; remaining at 3 h [3]: 99%

For `COc1ccc(C(C#N)(CCCN(C)CCSCc2cccc3c(=O)c(C)c(-c4ccccc4)oc23)C(C)C)cc1OC.Cl` (stereo not shown) [Example 19, 8-{2-[4-Cyano-4-(3,4-dimethoxyphenyl)-5,N-dimethylhexylamino]ethylthiomethyl}-3-methyl-4-oxo-2-phenyl-4H-1-benzopyran hydrochloride], which IC50 [1, 5] is on record?
Its IC50 is 500 nM.

What about the IC50 [1, 6] of the same compound?
Its IC50 is 1300 nM.

What about the LD50 at 168 h [2, 7] of the same compound?
The LD50 at 168 h was over 1000 mg/kg.

And the LD50 at 168 h [2, 8]?
Its LD50 at 168 h is over 3000 mg/kg.

For `COc1ccc(C(C#N)(CCCN(C)CC(=O)c2cccc3c(=O)c(C)c(-c4ccccc4)oc23)C(C)C)cc1OC.Cl.O` (stereo not shown) [Example 1, 8-{2-[4-Cyano-4-(3,4-dimethoxyphenyl)-5,N-dimethylhexylamino]-1-oxoethyl}-3-methyl-4-oxo-2-phenyl-4H-1-benzopyran hydrochloride hydrate], which IC50 [1, 5] is on record?
Its IC50 is 10000 nM.

What about the IC50 [1, 6] of the same compound?
Its IC50 is over 10000 nM.

And the LD50 at 168 h [2, 7]?
The LD50 at 168 h was 475 mg/kg.

And the LD50 at 168 h [2, 8]?
Its LD50 at 168 h is over 3000 mg/kg.

Which IC50 [1, 5] does the source give for `COc1ccc(C(C#N)(CCCN(C)CCOCc2cccc3c(=O)c(C)c(-c4ccccc4)oc23)C(C)C)cc1OC.Cl.O` (stereo not shown) [Example 18, 8-{2-[4-Cyano-4-(3,4-dimethoxyphenyl)-5,N-dimethylhexylamino]ethoxymethyl}-3-methyl-4-oxo-2-phenyl-4H-1-benzopyran hydrochloride hydrate] here?
Its IC50 is 300 nM.

What about the IC50 [1, 6] of the same compound?
The IC50 was 400 nM.

And the LD50 at 168 h [2, 7]?
The LD50 at 168 h was 334 mg/kg.

What about the LD50 at 168 h [2, 8] of the same compound?
Its LD50 at 168 h is 974 mg/kg.

For `COc1ccc(C(C#N)(CCCN(C)CC(=O)N(C)Cc2cccc3c(=O)c(C)c(-c4ccccc4)oc23)C(C)C)cc1OC.Cl.O` (stereo not shown) [Example 17, 8-{2-[4-Cyano-4-(3,4-dimethoxyphenyl)-N,5-dimethylhexylamino]-N-methyl-1-oxo-ethylaminomethyl}-3-methyl-4-oxo-2-phenyl-4H-1-benzopyran hydrochloride hydrate], which IC50 [1, 5] is on record?
The IC50 was 200 nM.

And the IC50 [1, 6]?
Its IC50 is 400 nM.

And the LD50 at 168 h [2, 7]?
The LD50 at 168 h was 334 mg/kg.

What about the LD50 at 168 h [2, 8] of the same compound?
Its LD50 at 168 h is 1710 mg/kg.

With `COc1ccc(CC[N+](C)([O-])CCCOC(=O)c2cccc3c(=O)c(C)c(-c4ccccc4)oc23)cc1OC` (stereo not shown) [Example 3, 8-{3-[2-(3,4-Dimethoxyphenyl)-N-methyl-N-oxoethylamino]-propoxycarbonyl}-3-methyl-4-oxo-2-phenyl-4H-1-benzopyran hydrochloride] as the compound, how does the IC50 [1, 5] read?
Its IC50 is over 10000 nM.

What about the IC50 [1, 6] of the same compound?
The IC50 was over 10000 nM.

What about the “activity of N-oxide compounds” value [1] of the same compound?
The value was “do not appear to be very active”.

What about the LD50 at 168 h [2, 7] of the same compound?
The LD50 at 168 h was over 1000 mg/kg.

And the LD50 at 168 h [2, 8]?
Its LD50 at 168 h is over 3000 mg/kg.

With `COc1ccc(C(C#N)(CCCN(C)CCNC(=O)c2cccc3c(=O)c(C)c(-c4ccccc4)oc23)C(C)C)cc1OC` (stereo not shown) [Example 13, 8-{2-[4-Cyano-4-(3,4-dimethoxyphenyl)-N,5-dimethylhexylamino]ethylcarbamoyl}-3-methyl-4-oxo-2-phenyl-4H-1-benzopyran hydrochloride hemihydrate] as the compound, how does the IC50 [1, 5] read?
Its IC50 is 300 nM.

What about the IC50 [1, 6] of the same compound?
Its IC50 is 100 nM.

And the LD50 at 168 h [2, 7]?
Its LD50 at 168 h is 422 mg/kg.

With `COc1ccc(C(C#N)(CCC[N+](C)([O-])CCCOC(=O)c2cccc3c(=O)c(C)c(-c4ccccc4)oc23)C(C)C)cc1OC` (stereo not shown) [Example 5, 8-{3-[4-Cyano-4-(3,4-dimethoxyphenyl)-N,5-dimethyl-N-oxohexylamino]propoxycarbonyl}-3-methyl-4-oxo-2-phenyl-4H-1-benzopyran hydrochloride x 0.25 H2 O] as the compound, how does the IC50 [1, 5] read?
The IC50 was 10000 nM.

What about the IC50 [1, 6] of the same compound?
Its IC50 is 2200 nM.

What about the “activity of N-oxide compounds” value [1] of the same compound?
The value was “do not appear to be very active”.

And the LD50 at 168 h [2, 7]?
The LD50 at 168 h was over 1000 mg/kg.

And the LD50 at 168 h [2, 8]?
The LD50 at 168 h was over 3000 mg/kg.

Which results are given for `COc1ccc(CCN(C)CCCNC(=O)c2cccc3c(=O)c(C)c(-c4ccccc4)oc23)cc1OC` [Example 12, 8-{3-[2-(3,4-Dimethoxyphenyl)-N-methylethylamino]propylcarbamoyl}-3-methyl-4-oxo-2-phenyl-4H -1-benzopyran hydrochloride 0.3-hydrate]?
IC50 [1, 5]: 2200 nM; IC50 [1, 6]: 1400 nM; LD50 at 168 h [2, 7]: 129 mg/kg; LD50 at 168 h [2, 8]: 716 mg/kg

With `COc1ccc(C(C#N)(CCCN(C)CCN(C)C(=O)c2cccc3c(=O)c(C)c(-c4ccccc4)oc23)C(C)C)cc1OC.Cl.O` (stereo not shown) [Example 14, 8-{2-[4-Cyano-4-(3,4-dimethoxyphenyl)-N,5-dimethylhexylamino]-N-methylethylcarbamoyl}-3-methyl-4-oxo-2-phenyl-4H-1-benzopyran hydrochloride hydrate] as the compound, how does the IC50 [1, 5] read?
Its IC50 is 100 nM.

And the IC50 [1, 6]?
Its IC50 is 100 nM.

What about the LD50 at 168 h [2, 7] of the same compound?
The LD50 at 168 h was 159 mg/kg.

And the LD50 at 168 h [2, 8]?
Its LD50 at 168 h is 346 mg/kg.

And the “relative therapeutic index (LD50/IC50) versus Flavoxate” value [4]?
Its value is “considerably safer than Flavoxate”.

For `COc1ccc(C(C#N)(CCCN(C)CCCNC(=O)c2cccc3c(=O)c(C)c(-c4ccccc4)oc23)C(C)C)cc1OC` (stereo not shown) [Example 11, 8-{3-[4-Cyano-4-(3,4-dimethoxyphenyl)-N,5-dimethylhexylamino]propylcarbamoyl}-3-methyl-4-oxo-2-phenyl-4H-1-benzopyran hydrochloride hemihydrate], which IC50 [1, 5] is on record?
Its IC50 is 600 nM.

And the IC50 [1, 6]?
The IC50 was 500 nM.

And the LD50 at 168 h [2, 7]?
Its LD50 at 168 h is 224 mg/kg.

What about the LD50 at 168 h [2, 8] of the same compound?
Its LD50 at 168 h is 400 mg/kg.

And the “relative therapeutic index (LD50/IC50) versus Flavoxate” value [4]?
The value was “considerably safer than Flavoxate”.

What does the source list for `COc1ccc(C(C#N)(CCCN(C)CC(=O)NCc2cccc3c(=O)c(C)c(-c4ccccc4)oc23)C(C)C)cc1OC.Cl.O.O` (stereo not shown) [Example 16, 8-{2-[4-Cyano-4-(3,4-dimethoxyphenyl)-N,5-dimethylhexylamino]-1-oxoethylaminomethyl}-3-methyl-4-oxo-2-phenyl-4H -1-benzopyran hydrochloride dihydrate]?
IC50 [1, 5]: 500 nM; IC50 [1, 6]: 900 nM; LD50 at 168 h [2, 7]: 440 mg/kg; LD50 at 168 h [2, 8]: 1280 mg/kg

Which results are given for `COc1ccc(C(C#N)(CCCN(C)CCCOC(=O)c2cccc3c(=O)c(C)c(-c4ccccc4)oc23)C(C)C)cc1OC.Cl` (stereo not shown) [Example 4, 8-{3-[4-Cyano-4-(3,4-dimethoxyphenyl)-N,5-dimethylhexylamino]propoxycarbonyl}-3-methyl-4-oxo-2-phenyl-4H-1-benzopyran hydrochloride]?
IC50 [1, 5]: 500 nM; IC50 [1, 6]: 1300 nM; LD50 at 168 h [2, 7]: > 1000 mg/kg; LD50 at 168 h [2, 8]: > 3000 mg/kg; remaining at 3 h [3]: 100%

Which IC50 [1, 5] does the source give for `COc1ccc(C(C#N)(CCCN(C)CCS(=O)(=O)Cc2cccc3c(=O)c(C)c(-c4ccccc4)oc23)C(C)C)cc1OC` (stereo not shown) [Example 20, 8-{2-[4-Cyano-4-(3,4-dimethoxyphenyl)-5,N-dimethylhexylamino]ethylsulphonylmethyl}-3-methyl-4-oxo-2-phenyl-4H-1-benzopyran hydrochloride hemihydrate] here?
Its IC50 is 500 nM.

And the IC50 [1, 6]?
Its IC50 is 500 nM.

And the LD50 at 168 h [2, 7]?
Its LD50 at 168 h is over 1000 mg/kg.

What about the LD50 at 168 h [2, 8] of the same compound?
Its LD50 at 168 h is over 3000 mg/kg.
